Assay: Absorption of the solution of coated or uncoated riboflavin in water (coloration/release)
Format: physicochemical
Settings: amount containing 10 mg riboflavin dissolved in 1000 ml water for 15 min; measured at 545 nm, spectrophotometer
Experimental: 80 g granulated Riboflavin was successively coated with 9% Na-alginate, 1% Ca-Chloride and 25% shellac using a WFP-mini fluid bed processor (DMR) in Wurster configuration. 89 g coated product with particle size between 250 and 1000 μm was obtained. Coating material was 35% of the particle mass, riboflavin content 50%. 20 mg of coated powder (containing 10 mg of Riboflavin) was dissolved in 1000 ml water for 15 min. Absorption of the solution was measured at 545 nm using a spectrophotometer (Genesys 20, thermo Scientific). Absorption of the solution was 0.065.
10 mg of riboflavin powder was dissolved in 1000 ml water for 15 min. Absorption of the solution was measured at 545 nm using a spectrophotometer (Genesys 20, thermo Scientific). Absorption of the solution was 0.386.
80 g granulated Riboflavin was coated with 60 g Eudragit FS30D and 10 g PIasACRYL T20 using a WFP-mini fluid bed processor (DMR) in Wurster configuration. 71 g coated product with particle size between 250 and 1000 μm was obtained. Coating material was ca. 20% of the particle mass, riboflavin content was 60%. 16.6 mg of coated powder (containing 10 mg of Riboflavin) was dissolved in 1000 ml water for 15 min. Absorption of the solution was measured at 545 nm using a spectrophotometer (Genesys 20, thermo Scientific). Absorption of the solution was 0.087.

- Absorption of the solution: 0.386
Structure (SMILES): Cc1cc2nc3c(=O)[nH]c(=O)nc-3n(C[C@H](O)[C@H](O)[C@H](O)CO)c2cc1C [Comparison Example 2, riboflavin]
